Molecules are shown by their SMILES.

T1 sequence (P13569 with tags, fused parts or gaps DEL508-508): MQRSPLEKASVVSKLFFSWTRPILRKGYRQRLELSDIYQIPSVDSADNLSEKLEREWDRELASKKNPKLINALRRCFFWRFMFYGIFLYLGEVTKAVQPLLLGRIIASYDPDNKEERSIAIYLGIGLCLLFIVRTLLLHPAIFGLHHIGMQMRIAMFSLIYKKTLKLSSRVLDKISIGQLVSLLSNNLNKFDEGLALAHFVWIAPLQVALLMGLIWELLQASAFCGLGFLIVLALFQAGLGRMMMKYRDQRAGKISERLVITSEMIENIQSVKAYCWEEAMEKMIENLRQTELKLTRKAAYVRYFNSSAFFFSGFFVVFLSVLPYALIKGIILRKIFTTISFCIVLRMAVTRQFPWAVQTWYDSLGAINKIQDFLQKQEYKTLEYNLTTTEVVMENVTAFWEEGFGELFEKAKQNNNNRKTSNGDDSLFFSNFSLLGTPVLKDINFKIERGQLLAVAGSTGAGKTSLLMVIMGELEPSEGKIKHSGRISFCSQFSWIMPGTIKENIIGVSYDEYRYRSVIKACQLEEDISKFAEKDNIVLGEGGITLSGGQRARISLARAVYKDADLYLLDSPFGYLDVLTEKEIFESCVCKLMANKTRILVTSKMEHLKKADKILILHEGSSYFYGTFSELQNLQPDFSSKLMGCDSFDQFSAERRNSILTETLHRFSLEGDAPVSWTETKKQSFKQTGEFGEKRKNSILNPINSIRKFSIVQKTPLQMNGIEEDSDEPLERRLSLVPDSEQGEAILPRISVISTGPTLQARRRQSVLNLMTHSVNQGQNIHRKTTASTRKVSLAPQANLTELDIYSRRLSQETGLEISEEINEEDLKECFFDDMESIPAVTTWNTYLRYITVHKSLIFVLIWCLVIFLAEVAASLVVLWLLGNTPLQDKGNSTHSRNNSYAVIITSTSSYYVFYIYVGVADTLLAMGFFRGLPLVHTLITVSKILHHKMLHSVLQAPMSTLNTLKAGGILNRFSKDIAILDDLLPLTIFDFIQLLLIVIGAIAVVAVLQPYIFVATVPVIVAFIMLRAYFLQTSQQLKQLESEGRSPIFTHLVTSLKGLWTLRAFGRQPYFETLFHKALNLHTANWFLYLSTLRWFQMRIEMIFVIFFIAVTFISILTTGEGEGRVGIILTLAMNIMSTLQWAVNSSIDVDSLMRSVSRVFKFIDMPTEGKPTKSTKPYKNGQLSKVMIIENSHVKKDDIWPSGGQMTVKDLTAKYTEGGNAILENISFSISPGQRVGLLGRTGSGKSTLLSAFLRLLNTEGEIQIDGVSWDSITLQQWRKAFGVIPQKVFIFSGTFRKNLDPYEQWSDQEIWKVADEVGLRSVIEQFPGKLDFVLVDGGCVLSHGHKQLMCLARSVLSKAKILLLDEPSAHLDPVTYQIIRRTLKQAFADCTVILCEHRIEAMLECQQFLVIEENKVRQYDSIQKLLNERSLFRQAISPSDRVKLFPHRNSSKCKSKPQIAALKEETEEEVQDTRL

The test addresses T1, ΔF508-CFTR (Homo sapiens, UniProt P13569, DEL508-508).
T1 construct: expressed in transfected cells; host or cells: CFSMEo- (human CF submucosal gland epithelial cells, ΔF508/Q2X), transiently transfected by nucleofection
As to the kind of experiment: ΔF508-CFTR-HRP trafficking assay (cell surface expression of ΔF508-CFTR). It counts as cell-based. Conditions: CFSMEo- cells transiently transfected with ΔF508-CFTR-HRP; test agent 3 μM, 48 h; HRP chemiluminescence. The source says: Test agents were screened for their effect on cell surface expression of ΔF508-CFTR using the ΔF508-CFTR-HRP trafficking assay. For this assay, a ΔF508-CFTR expression construct was designed with an in-frame insertion of a horseradish peroxidase (HRP) tag into the 4th extracellular loop of CFTR. The HRP tag would be presented extracellularly, in cells transiently transfected with the ΔF508-CFTR-HRP construct, following correction of the ΔF508-CFTR trafficking defect. The quantity of ΔF508-CFTR-HRP expressed on the plasma membrane could therefore be determined by measuring an HRP-dependent signal after the application of a cell-impermeable HRP substrate.
In brief, CF submucosal gland epithelial cells (CFSMEo-), derived from the airways of a CF patient (ΔF508/Q2X) and provided by Dr. Dieter Gruenert, University of California-San Francisco, were cultured at 37° C. with 5% CO2 in minimum essential medium (MEM) with Earle's salt and nonessential amino acids, supplemented with 10% (volume per volume [v/v]) fetal bovine serum, 2 mM L-glutamine and 1× (v/v) penicillin/streptomycin and grown in tissue culture-treated flasks coated with an extracellular matrix (ECM) cocktail consisting of 10 μg/mL human fibronectin, 30 μg/mL bovine collagen type I, and 100 μg/mL bovine serum albumin in LHC basal medium. These CFSMEo^− cells were transiently transfected with 4 μg of the ΔF508-CFTR-HRP expression construct using the Lonza 4D-Nucleofector Core unit (Lonza, Catalogue No. AAF-1002B) with the X unit (Lonza, Catalogue No. AAF-1002X) and SF Cell Line 4D-Nucleofector X Kit L (Lonza, Catalogue No. V4XC-2024) according to the manufacturer's instructions and plated at 1.2×10^4 cells/well onto collagen-coated, 96-well plates (Corning Inc.). Twenty-four h post-transfection, cells were treated with test agents, solubilized in DMSO at a concentration of 3 μM in replicates of 3, and allowed to incubate for 48 h. To detect HRP expression, cell culture media was removed, cells were washed with PBS and 100 μL of Luminata Forte HRP chemiluminescent substrate (EMD Millipore, Burlington, MA) was added to each well. Following a 5-minute incubation, chemiluminescence was measured in relative luminescent units (RLUs) using an EnVision plate reader (Perkin Elmer, Waltham, MA).
The ΔF508-CFTR-HRP trafficking data was normalized to the vehicle treated control (0.3% DMSO), followed by calculation of the mean, standard deviation, and standard error. If the test agent increased cell surface expression of ΔF508-CFTR-HRP relative to the vehicle-treated control, then that test agent was considered a ΔF508-CFTR corrector. Based on the description above, the biological activity of the examples in this disclosure is collected in Table 2.
Consider `C[C@H](Oc1cccc(-n2nc(C(F)(F)F)c3c2C(O[C@H]2CC[C@H](C(=O)O)CC2)CCC3)c1)c1ccc2c(c1)OC(F)(F)O2` (relative stereo) [Example 37], for which the “RLUs: ΔF508-CFTR-HRP trafficking data normalized to the vehicle treated control (0.3% DMSO)” value is “A (RLU 5.0 μM-10 μM)”. Under `C[C@H](Oc1cncc(-n2nc(C(F)(F)F)c3c2[C@@H](OC24CC(C(=O)O)(C2)C4)CCC3)c1)c1cc2c(cc1F)OC(F)(F)O2` (single isomer, unassigned) [74 (P1)] stands “A (RLU 5.0 μM-10 μM)”.

For the compound `C[C@H](Oc1cncc(-n2nc(C(F)(F)F)c3c2[C@H](OC24CC(C(=O)O)(C2)C4)CCC3)c1)c1cc2c(cc1F)OC(F)(F)O2` (single isomer, unassigned) [74 (P2)], the “RLUs: ΔF508-CFTR-HRP trafficking data normalized to the vehicle treated control (0.3% DMSO)” value is given as “A (RLU 5.0 μM-10 μM)”.

Turning to `C[C@H](Oc1cc(-n2nc(C(F)(F)F)c3c2[C@@H](OC24CC(C(=O)O)(C2)C4)CCC3)cnc1F)c1cc2c(cc1F)OC(F)(F)O2` (single isomer, unassigned) [75 (P1)], the “RLUs: ΔF508-CFTR-HRP trafficking data normalized to the vehicle treated control (0.3% DMSO)” value is “C (RLU 0.0 μM-3.5 μM)”.

In the case of `C[C@H](Oc1cc(-n2nc(C(F)(F)F)c3c2[C@H](OC24CC(C(=O)O)(C2)C4)CCC3)cnc1F)c1cc2c(cc1F)OC(F)(F)O2` (single isomer, unassigned) [75 (P2)], the “RLUs: ΔF508-CFTR-HRP trafficking data normalized to the vehicle treated control (0.3% DMSO)” value was “C (RLU 0.0 μM-3.5 μM)”. For `C[C@H](Oc1cc(-n2nc(C(F)(F)F)c3c2[C@@H](OC24CC(C(=O)O)(C2)C4)CCC3)ccc1F)c1ccc2c(c1)OC(F)(F)O2` (single isomer, unassigned) [76 (P1)], the “RLUs: ΔF508-CFTR-HRP trafficking data normalized to the vehicle treated control (0.3% DMSO)” value is “C (RLU 0.0 μM-3.5 μM)”. The result for `C[C@H](Oc1cc(-n2nc(C(F)(F)F)c3c2[C@H](OC24CC(C(=O)O)(C2)C4)CCC3)ccc1F)c1ccc2c(c1)OC(F)(F)O2` (single isomer, unassigned) [76 (P2)] reads “C (RLU 0.0 μM-3.5 μM)”; that for `C[C@H](Oc1cccc(-n2nc(C(F)(F)F)c3c2[C@@H](OC24CC(C(=O)O)(C2)C4)CCC3)n1)c1ccc2c(c1)OC(F)(F)O2` (single isomer, unassigned) [77 (P1)], “B (RLU 3.5 μM-5.0 μM)”; that for `C[C@H](Oc1cccc(-n2nc(C(F)(F)F)c3c2[C@H](OC24CC(C(=O)O)(C2)C4)CCC3)n1)c1ccc2c(c1)OC(F)(F)O2` (single isomer, unassigned) [77 (P2)], “B (RLU 3.5 μM-5.0 μM)”.

Turning to `C[C@H](Oc1cc(-n2nc(C(F)(F)F)c3c2[C@@H](OC24CC(CC(=O)O)(C2)C4)CCC3)ccc1F)c1ccc2c(c1)OC(F)(F)O2` (single isomer, unassigned) [78 (P1)], the “RLUs: ΔF508-CFTR-HRP trafficking data normalized to the vehicle treated control (0.3% DMSO)” value is “C (RLU 0.0 μM-3.5 μM)”. Take `C[C@H](Oc1cc(-n2nc(C(F)(F)F)c3c2[C@H](OC24CC(CC(=O)O)(C2)C4)CCC3)ccc1F)c1ccc2c(c1)OC(F)(F)O2` (single isomer, unassigned) [78 (P2)]: the “RLUs: ΔF508-CFTR-HRP trafficking data normalized to the vehicle treated control (0.3% DMSO)” value was “C (RLU 0.0 μM-3.5 μM)”. The result for `C[C@H](Oc1cc(-n2nc(C(F)(F)F)c3c2[C@@H](O[C@H]2CC[C@H](C(=O)O)CC2)CCC3)cnc1F)c1ccc2c(c1)OC(F)(F)O2` (single isomer, unassigned) [79 (P1)] reads “B (RLU 3.5 μM-5.0 μM)”; that for `C[C@H](Oc1cc(-n2nc(C(F)(F)F)c3c2[C@@H](O[C@H]2CC[C@H](C(=O)O)CC2)CCC3)cc(F)n1)c1ccc2c(c1)OC(F)(F)O2` (single isomer, unassigned) [80 (P1)], “A (RLU 5.0 μM-10 μM)”; that for `C[C@H](Oc1cc(-n2nc(C(F)(F)F)c3c2[C@H](OC24CCC(C(=O)O)(CC2)CC4)CCC3)cc(F)n1)c1ccc2c(c1)OC(F)(F)O2` (single isomer, unassigned) [81 (P1)], “A (RLU 5.0 μM-10 μM)”. Under `C[C@H](Oc1cc(-n2nc(C(F)(F)F)c3c2[C@@H](OC24CCC(C(=O)O)(CC2)CC4)CCC3)cc(F)n1)c1ccc2c(c1)OC(F)(F)O2` (single isomer, unassigned) [81 (P2)] stands “C (RLU 0.0 μM-3.5 μM)”. Under `C[C@H](Oc1cc(-n2nc(C(F)(F)F)c3c2[C@@H](OC[C@H]2CC[C@H](C(=O)O)CC2)CCC3)cnc1F)c1ccc2c(c1)OC(F)(F)O2` (single isomer, unassigned) [82 (P1)] stands “B (RLU 3.5 μM-5.0 μM)”. Consider `C[C@H](Oc1cc(-n2nc(C(F)(F)F)c3c2[C@H](OC[C@H]2CC[C@H](C(=O)O)CC2)CCC3)cnc1F)c1ccc2c(c1)OC(F)(F)O2` (single isomer, unassigned) [82 (P2)], for which the “RLUs: ΔF508-CFTR-HRP trafficking data normalized to the vehicle treated control (0.3% DMSO)” value is given as “A (RLU 5.0 μM-10 μM)”. Under `C[C@H](Oc1cccc(-n2nc(C(F)(F)F)c3c2[C@@H](O[C@H]2C[C@H](C(=O)O)C2)CCC3)n1)c1cc2c(cc1F)OC(F)(F)O2` (single isomer, unassigned) [83 (P1)] stands “B (RLU 3.5 μM-5.0 μM)”; under `C[C@H](Oc1cccc(-n2nc(C(F)(F)F)c3c2[C@H](O[C@H]2C[C@H](C(=O)O)C2)CCC3)n1)c1cc2c(cc1F)OC(F)(F)O2` (single isomer, unassigned) [83 (P2)], “C (RLU 0.0 μM-3.5 μM)”. The result for `C[C@H](Oc1nc(-n2nc(C(F)(F)F)c3c2[C@@H](O[C@H]2C[C@H](C(=O)O)C2)CCC3)ccc1F)c1cc2c(cc1F)OC(F)(F)O2` (single isomer, unassigned) [84 (P1)] reads “B (RLU 3.5 μM-5.0 μM)”; that for `C[C@H](Oc1nc(-n2nc(C(F)(F)F)c3c2[C@H](O[C@H]2C[C@H](C(=O)O)C2)CCC3)ccc1F)c1cc2c(cc1F)OC(F)(F)O2` (single isomer, unassigned) [84 (P2)], “C (RLU 0.0 μM-3.5 μM)”. For `C[C@H](Oc1cc(-n2nc(C(F)(F)F)c3c2[C@@H](OC24CC(c5nc(=O)o[nH]5)(C2)C4)CCC3)ccc1F)c1ccc2c(c1)OC(F)(F)O2` (single isomer, unassigned) [85 (P1)], the “RLUs: ΔF508-CFTR-HRP trafficking data normalized to the vehicle treated control (0.3% DMSO)” value is given as “C (RLU 0.0 μM-3.5 μM)”.

As to `C[C@H](Oc1cc(-n2nc(C(F)(F)F)c3c2[C@H](OC24CC(c5nc(=O)o[nH]5)(C2)C4)CCC3)ccc1F)c1ccc2c(c1)OC(F)(F)O2` (single isomer, unassigned) [85 (P2)], the “RLUs: ΔF508-CFTR-HRP trafficking data normalized to the vehicle treated control (0.3% DMSO)” value is reported as “B (RLU 3.5 μM-5.0 μM)”. Under `C[C@H](Oc1cc(-n2nc(C(F)(F)F)c3c2[C@@H](OC24CC(c5nc(=O)o[nH]5)(C2)C4)CCC3)ccc1F)c1cc2c(cc1F)OC(F)(F)O2` (single isomer, unassigned) [86 (P1)] stands “C (RLU 0.0 μM-3.5 μM)”; under `C[C@H](Oc1cc(-n2nc(C(F)(F)F)c3c2[C@H](OC24CC(c5nc(=O)o[nH]5)(C2)C4)CCC3)ccc1F)c1cc2c(cc1F)OC(F)(F)O2` (single isomer, unassigned) [86 (P2)], “C (RLU 0.0 μM-3.5 μM)”.

(Values after US20250326749A1, “COMPOUNDS, COMPOSITIONS, AND METHODS OF USING THEREOF” (Sionna Therapeutics Inc., priority 2022, published 2025).)
